Experimental data taken from patent US12679825B2, “Crystalline and amorphous forms of a δ-opioid modulator” (Trevena, Inc., priority 2020, dated 2026).
Values after ≈ are worked out from the molar mass of the structure shown.

Assays:
[1] = Aqueous solubility study (slurry in deionized water, HPLC); assay type: physicochemical; set-up: key to XRPD of residual solid, Wet / XRPD of residual solid, Dry: CRY: Crystalline
Description: The aqueous solubility of the crystalline Form I was assessed using the following procedure: • Approximately 10 mg of the dried material was slurried in deionized water (100 μL) at 20° C. with stirring. • Further aliquots of water (50 μL) were added until a mobile slurry was obtained. A total of 600 μL was used. • The slurry was stirred at 20° C. for 24 h then separated by centrifugation (0.22 μm nylon filter). • The residual solid was analyzed by XRPD and then dried under vacuum at ambient temperature (ca. 20° C.) for 72 h, prior to re-analysis by XRPD. The results are shown in FIG. 45. • The pH of the mother liquor was measured. • The mother liquors were analyzed by HPLC for purity and concentration.

[2] = Spectrometric (UV-metric) pKa; assay type: physicochemical; conditions: base; aqueous value by Yasuda-Shedlovsky extrapolation from methanol-water co-solvent; 25.0±0.2° C.; 0.15 M KCl
Description: Crystalline forms of the compound of Formula I, including the crystalline Form I, were analyzed using pKa and LogP. An automated titrator system with an incorporated UV-Vis spectrometer (SiriusT3™, Pion Inc.) was used to acquire the spectrometric and potentiometric data. The optical system consisted of a photodiode array detector with a deuterium lamp and a fiber optic dip probe.
The titrator module consisted of a temperature controller (by Peltier device with in-situ thermocouple), pH electrode, an overhead stirrer, and motorized dispensers for the automatic delivery of assay titrants and reagents via capillaries. The instrumentation was operated using SiriusT3Control software (V2.0). Data processing and generation of the reported pKa and logP values was carried out using SiriusT3Refine software (V2.0). The titrants used were 0.5 M hydrochloric acid and 0.5 M potassium hydroxide, standardized using potassium hydrogen phthalate. ACS or HPLC grade methanol cosolvent was used for pKa determination. Spectrophotometric experiments were carried out in the presence of a mid-range buffer solution (15 mM di-potassium hydrogen orthophosphate) or Neutral Linear Buffer™ to prevent uncontrolled pH-drift at mid-range pH. For logP assays, ACS or HPLC grade 1-octanol was used as the partition solvent.
All experiments were carried out at a controlled temperature of 25.0±0.2° C. […]

COCCOc1cccc([C@@H]2CCN(CCn3cccc3)[C@H](C)[C@H]2COc2ccc3c(c2)C(=O)NC3)c1 [crystalline Form I, (−)-6-{[(trans, trans)-4-[3-(2-methoxyethoxy)phenyl]-2-methyl-1-[2-(1H-pyrrol-1-yl)ethyl]piperidin-3-yl]methoxy}-2,3-dihydro-1H-isoindol-1-one]
XRPD of residual solid, Dry ([1]; after slurrying in water and drying under vacuum 72 h): CRY | XRPD of residual solid, Wet ([1]; after slurrying in water at 20° C. for 24 h): CRY | solubility at 24 h ([1]; thermodynamic from solid, deionized water, 20° C., slurry stirred 24 h, HPLC, mother liquor pH 6.84, read-out: Aqueous Solubility (solution concentration)): 97 µg/mL (≈ 193 µM) | Form after slurrying in water (XRPD) ([1]; water, 20° C., and after drying): retained | pKa [2]: 7.74 ± 0.04
